Source: US20100093760A1, “METHODS FOR IDENTIFYING COMPOUNDS THAT MODULATE CELL SIGNALING AND METHODS EMPLOYING SUCH COMPOUNDS” (The General Hospital Corporation, priority 2006, published 2010)
“Also recorded” adds a separate entry of the source.

What was measured:
[1] = test system: hepatic SMAD1/5/8 phosphorylation; experiment: Iron-dextran challenge: hepatic SMAD1/5/8 phosphorylation in mice; assay type: in vivo, C57BL/6 mice; conditions: 10 mg/kg co-injected with iron-dextran, intravenous, 1 hour
[2] = test system: hepcidin (HAMP) mRNA; experiment: Hepcidin mRNA qRT-PCR in HepG2 cells; assay type: cell-based, human; conditions: 10 μM in combination with BMP2
Experimental: Quantitative RT-PCR was performed for mRNA encoding Id1 or human hepcidin (HAMP) as previously described (Babitt et al., Nat. Genet. 38:531-539, 2006; Yu et al., J. Biol. Chem. 280:24443-24450, 2005), and normalized to 18S ribosomal RNA (rRNA) or β-actin mRNA levels.

[3] = test system: PI-3 kinase, JAK, STAT, PKA, PKC, and various other pathways; conditions: previous reports; cited from earlier work
[4] = test system: BMP signaling pathway (activation of SMAD1/5/8 by BMP4); experiment: Cellular ELISA of BMP4-mediated SMAD1/5/8 activation; assay type: cell-based
Experimental: In one example, the cell-based assay of the invention is an enzyme linked immunosorbent assay (ELISA) in which activation of SMAD proteins (SMAD2 or SMAD1/5/8) is measured. […] As discussed above, SMAD proteins are phosphorylated by heteromeric complexes of type I and type II BMP or TGF-β serine-threonine kinase receptors when engaged by ligands. The principal effects of these ligands are generally attributable to gene transcription from the activation of specific SMADs. Phosphorylated SMADs can be detected in whole cell extracts using commercially available anti-phospho-protein antibodies with high specificity by Western blotting (Yu et al., J. Biol. Chem. 280:24443-24450, 2005).
In an improved method provided by the invention, phosphorylated SMADs are detected in whole cells with high sensitivity and specificity by immobilizing and rendering the phospho-SMAD antigens accessible to antibody. Traditional fixation with 1% to 8% paraformaldehyde solution followed by permeabilization with methanol, or a solution of dilute detergent such as Triton-X100, yields unacceptable results, with the signal being only 1.2 to 1.3 times the background, if it is detected at all (while Western blot these signal-to-noise ratios would be 10 to 20). […]

[5] = test system: zebrafish embryos; assay type: in vivo
Experimental: According to one example of the whole animal-based screening methods of the invention, 1-2 hour old zebrafish embryos are arrayed in the wells of 96-well plates, three embryos per well. A chemical library, which is comprised of tens of thousands of diverse small molecules, is then pin-transferred into the wells at a final concentration of ˜2 to 10 uM. Embryos are observed over the course of next 24-48 hours and scored under a dissecting microscope for phenotype consistent with loss of BMP signaling (dorsalized embryos, FIG. 1) or with the loss of nodal signaling (cyclopia, FIG. 2).
Small molecule screening in zebrafish was performed as previously described (Peterson et al., Nat. Biotechnol. 22:595-599, 2004) with several modifications. Pairs of wild-type zebrafish were mated, and newly-fertilized eggs were arrayed in triplicate in 96-well plates containing E3 buffer. At 4 hours post fertilization (hpf), compounds were added to wells at 5-10 μM. Embryos were incubated at 28.5° C., and gross morphology of embryos was examined at 12, 24, and 48 hpf for dorsalization or ventralization of embryonic axis, as previously described (Mullins et al., Development 123:81-93, 1996). In total, 7,570 compounds were screened, including synthetic screening compounds (Chembridge Corporation, 5,580 small molecules) and known bioactive compounds (Microsource Discovery Systems, 1,840 small molecules and Sigma-Aldrich, 150 small molecules). For follow up studies, Compound C/Dorsomorphin and Ara-A (adenine 9-β-D-arabinofurano-side) were purchased from Sigma (St. Louis, Mo.), and C75 was purchased from EMD Biosciences (San Diego, Calif.).

[6] = 10 μM, continuous exposure from 8 hpf, scored at 48 hpf

SMILES: c1cc(-c2cnn3cc(-c4ccc(OCCN5CCCCC5)cc4)cnc23)ccn1 [Compound C/Dorsomorphin]
- effect on iron-mediated increase in hepatic SMAD1/5/8 phosphorylation [1]: abolished; also recorded: did not exhibit an increase
- hepcidin mRNA with BMP2 co-treatment [2]: abolished; also recorded: below the basal level
- inhibition of activation of PI-3 kinase, JAK, STAT, PKA, PKC, and various other pathways [3]: does not exhibit significant inhibition
- Preference for BMP-mediated SMAD1/5/8 over TGF-β-mediated SMAD2 phosphorylation ([4]; FIG. 4): potently and preferentially inhibited; also recorded: preferentially inhibits
- IC50 ([4]; FIG. 4, read-out: IC50, inhibition of activation of the BMP signaling pathway (SMAD1/5/8 by BMP4)): < 200 nM
- Moderate % [5, 6]: 0%
- Normal % [5, 6]: 15%
- Severe % ([5]; 10 μM, interval exposure 2-4 hpf, scored at 48 hpf): 0%
- Moderate dorsalization, number of embryos ([5]; 10 μM, interval exposure 4-8 hpf, scored at 48 hpf): 8
- Moderate-Severe, number of embryos ([5]; DM 2 μM from 3 hpf, scored at 48 hpf): 0
- dorsalization phenotype ([5]; ≧5 μM at ≦8 hpf): phenocopied with high penetrance the spectrum of dorsalization defects
